From the supplement of paper PMC10307832

Assays:
Assay in all cases: relative viability (nuclei count vs DMSO), 5 days (fraction); higher = more cells survive
[1] = compound: CC(C)CCN1c2nc(Nc3cc(F)c(O)c(F)c3)ncc2N(C)C(=O)C1C [BI-D1870] + CS(=O)(=O)CCNCc1ccc(-c2ccc3ncnc(Nc4ccc(OCc5cccc(F)c5)c(Cl)c4)c3c2)o1 [Lapatinib] (partner 2 µM)
Procedure, shortened: (§1)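 Each reported value is a median over duplicate plates. It expresses relative viability: treated-well nuclei count divided by vehicle-well nuclei count. Lung cancer cell lines in 1536-well plates were dosed by pin tool a day after seeding, alone with one drug or with a fixed anchor-drug dose plus five library-drug doses (not always all listed) in √10 steps, and nuclei were counted after 5 days.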

[2] = compound: CC(C)CCN1c2nc(Nc3cc(F)c(O)c(F)c3)ncc2N(C)C(=O)C1C [BI-D1870] + Cc1nc(Nc2ncc(C(=O)Nc3c(C)cccc3Cl)s2)cc(N2CCN(CCO)CC2)n1 [Dasatinib] (partner 0.075 µM)
Procedure, shortened: as §1

[3] = compound: O=c1ncccn1[C@@H]1O[C@H](CO)[C@@H](O)[C@H]1O [Zebularine] + C[C@@H](Oc1cc(-c2cnn(C3CCNCC3)c2)cnc1N)c1c(Cl)ccc(F)c1Cl [Crizotinib] (partner 1 µM)
Procedure, shortened: as §1

[4] = compound: O=c1ncccn1[C@@H]1O[C@H](CO)[C@@H](O)[C@H]1O [Zebularine] + O=C(c1cc(Cc2n[nH]c(=O)c3ccccc23)ccc1F)N1CCN(C(=O)C2CC2)CC1 [Olaparib] (partner 8 µM)
Procedure, shortened: as §1

NCI-H2347
relative viability ([1]; first compound 0.04 µM): 1.12 | relative viability ([1]; first compound 0.1265 µM): 0.977 | relative viability ([1]; first compound 0.4 µM): 0.745 | relative viability ([1]; first compound 1.265 µM): 0.921 | relative viability ([1]; first compound 4 µM): 1.03 | relative viability ([2]; first compound 0.04 µM): 0.345 | relative viability ([2]; first compound 0.1265 µM): 0.319 | relative viability ([2]; first compound 0.4 µM): 0.332 | relative viability ([2]; first compound 1.265 µM): 0.306 | relative viability ([2]; first compound 4 µM): 0.297 | relative viability ([3]; first compound 1 µM): 0.682 | relative viability ([3]; first compound 3.162 µM): 0.676 | relative viability ([3]; first compound 10 µM): 0.618 | relative viability ([3]; first compound 31.62 µM): 0.516 | relative viability ([3]; first compound 100 µM): 0.381 | relative viability ([4]; first compound 1 µM): 0.565 | relative viability ([4]; first compound 3.162 µM): 0.566 | relative viability ([4]; first compound 10 µM): 0.531 | relative viability ([4]; first compound 31.62 µM): 0.385 | relative viability ([4]; first compound 100 µM): 0.358

NCI-H2405
relative viability ([1]; first compound 0.04 µM): 1.16 | relative viability ([1]; first compound 0.1265 µM): 1.03 | relative viability ([1]; first compound 0.4 µM): 1.05 | relative viability ([1]; first compound 1.265 µM): 1.32 | relative viability ([1]; first compound 4 µM): 1.1 | relative viability ([2]; first compound 0.04 µM): 0.253 | relative viability ([2]; first compound 0.1265 µM): 0.19 | relative viability ([2]; first compound 0.4 µM): 0.218 | relative viability ([2]; first compound 1.265 µM): 0.215 | relative viability ([2]; first compound 4 µM): 0.219 | relative viability ([3]; first compound 1 µM): 0.845 | relative viability ([3]; first compound 3.162 µM): 0.825 | relative viability ([3]; first compound 10 µM): 0.621 | relative viability ([3]; first compound 31.62 µM): 0.846 | relative viability ([3]; first compound 100 µM): 0.56 | relative viability ([4]; first compound 1 µM): 0.905 | relative viability ([4]; first compound 3.162 µM): 0.782 | relative viability ([4]; first compound 10 µM): 0.533 | relative viability ([4]; first compound 31.62 µM): 0.564 | relative viability ([4]; first compound 100 µM): 0.511

NCI-H3122
relative viability ([1]; first compound 0.04 µM): 1.02 | relative viability ([1]; first compound 0.1265 µM): 0.985 | relative viability ([1]; first compound 0.4 µM): 0.983 | relative viability ([1]; first compound 1.265 µM): 1.01 | relative viability ([1]; first compound 4 µM): 0.967 | relative viability ([2]; first compound 0.04 µM): 0.845 | relative viability ([2]; first compound 0.1265 µM): 0.744 | relative viability ([2]; first compound 0.4 µM): 0.834 | relative viability ([2]; first compound 1.265 µM): 0.955 | relative viability ([2]; first compound 4 µM): 0.92 | relative viability ([3]; first compound 1 µM): 0.268 | relative viability ([3]; first compound 3.162 µM): 0.248 | relative viability ([3]; first compound 10 µM): 0.243 | relative viability ([3]; first compound 31.62 µM): 0.298 | relative viability ([3]; first compound 100 µM): 0.235 | relative viability ([4]; first compound 1 µM): 0.727 | relative viability ([4]; first compound 3.162 µM): 0.631 | relative viability ([4]; first compound 10 µM): 0.358 | relative viability ([4]; first compound 31.62 µM): 0.478 | relative viability ([4]; first compound 100 µM): 0.369

PC-3 [JPC-3]
relative viability ([1]; first compound 0.04 µM): 0.455 | relative viability ([1]; first compound 0.1265 µM): 0.425 | relative viability ([1]; first compound 0.4 µM): 0.463 | relative viability ([1]; first compound 1.265 µM): 0.52 | relative viability ([1]; first compound 4 µM): 0.385 | relative viability ([2]; first compound 0.04 µM): 1 | relative viability ([2]; first compound 0.1265 µM): 0.892 | relative viability ([2]; first compound 0.4 µM): 1.01 | relative viability ([2]; first compound 1.265 µM): 1.12 | relative viability ([2]; first compound 4 µM): 0.947 | relative viability ([3]; first compound 1 µM): 1.09 | relative viability ([3]; first compound 3.162 µM): 0.943 | relative viability ([3]; first compound 10 µM): 0.64 | relative viability ([3]; first compound 31.62 µM): 0.699 | relative viability ([3]; first compound 100 µM): 0.476 | relative viability ([4]; first compound 1 µM): 1.18 | relative viability ([4]; first compound 3.162 µM): 0.984 | relative viability ([4]; first compound 10 µM): 0.675 | relative viability ([4]; first compound 31.62 µM): 0.673 | relative viability ([4]; first compound 100 µM): 0.593

PC-14
relative viability ([1]; first compound 0.04 µM): 0.36 | relative viability ([1]; first compound 0.1265 µM): 0.301 | relative viability ([1]; first compound 0.4 µM): 0.343 | relative viability ([1]; first compound 1.265 µM): 0.395 | relative viability ([1]; first compound 4 µM): 0.269 | relative viability ([2]; first compound 0.04 µM): 0.27 | relative viability ([2]; first compound 0.1265 µM): 0.241 | relative viability ([2]; first compound 0.4 µM): 0.272 | relative viability ([2]; first compound 1.265 µM): 0.239 | relative viability ([2]; first compound 4 µM): 0.259 | relative viability ([3]; first compound 1 µM): 1.01 | relative viability ([3]; first compound 3.162 µM): 0.81 | relative viability ([3]; first compound 10 µM): 0.271 | relative viability ([3]; first compound 31.62 µM): 0.141 | relative viability ([3]; first compound 100 µM): 0.122 | relative viability ([4]; first compound 1 µM): 0.179 | relative viability ([4]; first compound 3.162 µM): 0.121 | relative viability ([4]; first compound 10 µM): 0.208 | relative viability ([4]; first compound 31.62 µM): 0.136 | relative viability ([4]; first compound 100 µM): 0.122

RERF-LC-KJ
relative viability ([1]; first compound 0.04 µM): 0.886 | relative viability ([1]; first compound 0.1265 µM): 0.783 | relative viability ([1]; first compound 0.4 µM): 0.8 | relative viability ([1]; first compound 1.265 µM): 0.821 | relative viability ([1]; first compound 4 µM): 0.863 | relative viability ([2]; first compound 0.04 µM): 0.968 | relative viability ([2]; first compound 0.1265 µM): 0.72 | relative viability ([2]; first compound 0.4 µM): 0.762 | relative viability ([2]; first compound 1.265 µM): 0.814 | relative viability ([2]; first compound 4 µM): 0.495 | relative viability ([3]; first compound 1 µM): 1.01 | relative viability ([3]; first compound 3.162 µM): 0.826 | relative viability ([3]; first compound 31.62 µM): 0.885 | relative viability ([3]; first compound 100 µM): 0.977 | relative viability ([4]; first compound 1 µM): 0.989 | relative viability ([4]; first compound 3.162 µM): 0.874 | relative viability ([4]; first compound 10 µM): 0.655 | relative viability ([4]; first compound 31.62 µM): 1.03 | relative viability ([4]; first compound 100 µM): 0.845

SK-LU-1
relative viability ([1]; first compound 0.04 µM): 0.922 | relative viability ([1]; first compound 0.1265 µM): 0.894 | relative viability ([1]; first compound 0.4 µM): 0.791 | relative viability ([1]; first compound 1.265 µM): 0.793 | relative viability ([1]; first compound 4 µM): 0.462 | relative viability ([2]; first compound 0.04 µM): 0.18 | relative viability ([2]; first compound 0.1265 µM): 0.165 | relative viability ([2]; first compound 0.4 µM): 0.132 | relative viability ([2]; first compound 1.265 µM): 0.229 | relative viability ([2]; first compound 4 µM): 0.153 | relative viability ([3]; first compound 1 µM): 1.02 | relative viability ([3]; first compound 3.162 µM): 0.843 | relative viability ([3]; first compound 10 µM): 0.531 | relative viability ([3]; first compound 31.62 µM): 0.79 | relative viability ([3]; first compound 100 µM): 0.583 | relative viability ([4]; first compound 1 µM): 0.434 | relative viability ([4]; first compound 3.162 µM): 0.351 | relative viability ([4]; first compound 10 µM): 0.333 | relative viability ([4]; first compound 31.62 µM): 0.313 | relative viability ([4]; first compound 100 µM): 0.289

SK-MES-1
relative viability ([1]; first compound 0.04 µM): 0.468 | relative viability ([1]; first compound 0.1265 µM): 0.443 | relative viability ([1]; first compound 0.4 µM): 0.417 | relative viability ([1]; first compound 1.265 µM): 0.509 | relative viability ([1]; first compound 4 µM): 0.356 | relative viability ([2]; first compound 0.04 µM): 0.44 | relative viability ([2]; first compound 0.1265 µM): 0.369 | relative viability ([2]; first compound 0.4 µM): 0.323 | relative viability ([2]; first compound 1.265 µM): 0.362 | relative viability ([2]; first compound 4 µM): 0.3 | relative viability ([3]; first compound 1 µM): 1.07 | relative viability ([3]; first compound 3.162 µM): 1.03 | relative viability ([3]; first compound 10 µM): 0.645 | relative viability ([3]; first compound 31.62 µM): 0.648 | relative viability ([3]; first compound 100 µM): 0.325 | relative viability ([4]; first compound 1 µM): 0.947 | relative viability ([4]; first compound 3.162 µM): 0.722 | relative viability ([4]; first compound 10 µM): 0.479 | relative viability ([4]; first compound 31.62 µM): 0.393 | relative viability ([4]; first compound 100 µM): 0.268

SW 1573
relative viability ([1]; first compound 0.04 µM): 1.13 | relative viability ([1]; first compound 0.1265 µM): 1.16 | relative viability ([1]; first compound 0.4 µM): 1.11 | relative viability ([1]; first compound 1.265 µM): 1.25 | relative viability ([1]; first compound 4 µM): 1.14 | relative viability ([2]; first compound 0.04 µM): 0.625 | relative viability ([2]; first compound 0.1265 µM): 0.456 | relative viability ([2]; first compound 0.4 µM): 0.594 | relative viability ([2]; first compound 1.265 µM): 0.472 | relative viability ([2]; first compound 4 µM): 0.213 | relative viability ([3]; first compound 1 µM): 0.72 | relative viability ([3]; first compound 3.162 µM): 0.776 | relative viability ([3]; first compound 10 µM): 0.44 | relative viability ([3]; first compound 31.62 µM): 0.831 | relative viability ([3]; first compound 100 µM): 0.574 | relative viability ([4]; first compound 1 µM): 0.487 | relative viability ([4]; first compound 3.162 µM): 0.442 | relative viability ([4]; first compound 10 µM): 0.33 | relative viability ([4]; first compound 31.62 µM): 0.46 | relative viability ([4]; first compound 100 µM): 0.325

UMC-11
relative viability ([1]; first compound 0.04 µM): 1.12 | relative viability ([1]; first compound 0.1265 µM): 0.858 | relative viability ([1]; first compound 0.4 µM): 0.97 | relative viability ([1]; first compound 1.265 µM): 1.08 | relative viability ([1]; first compound 4 µM): 0.637 | relative viability ([2]; first compound 0.04 µM): 0.579 | relative viability ([2]; first compound 0.1265 µM): 0.454 | relative viability ([2]; first compound 0.4 µM): 0.481 | relative viability ([2]; first compound 1.265 µM): 0.393 | relative viability ([2]; first compound 4 µM): 0.142 | relative viability ([3]; first compound 1 µM): 0.666 | relative viability ([3]; first compound 3.162 µM): 0.489 | relative viability ([3]; first compound 10 µM): 0.397 | relative viability ([3]; first compound 31.62 µM): 0.374 | relative viability ([3]; first compound 100 µM): 0.343 | relative viability ([4]; first compound 1 µM): 0.407 | relative viability ([4]; first compound 3.162 µM): 0.377 | relative viability ([4]; first compound 10 µM): 0.346 | relative viability ([4]; first compound 31.62 µM): 0.362 | relative viability ([4]; first compound 100 µM): 0.293
